Measurements from US10138271B2, “Native and agonist CTL epitopes of the MUC1 tumor antigen” (The United States of America, as represented by the …, priority 2012, dated 2018).

Legend:
Assay type in all cases: cell-based, human
[1] = system: MUC1-C specific CD8+ T-cells; test: HLA-A3 tetramer analysis of T-cell lines; conditions: T-cell line after 6 IVS cycles
Experimental: (§1) Phycoerythrin (PE) labeled HLA-A3-P432-3F10K and HLA-A3-P483-2L3F tetramers were prepared by the NIH Tetramer Core Facility (Atlanta, Ga.), and PE labeled MHC class I human negative tetramer (Kit No T01044) was obtained from Beckman Coulter Inc (Sykesville, Md.). […] The tetramers were used at a 1:100 dilution, and cells were stained for 45 minutes at 4° C. 1×10^5 cells were acquired on an LSRII (BD), and data was analyzed using FlowJo 9.0.1 software (Tree Star Inc, Ashland, Oreg.).
To determine the frequency of MUC1-C specific CD8^+ T-cells in the T-cell lines generated with peptides P432-3F10K and P483-2L3F, HLA-A3-P432-3F10K tetramer and HLA-A3-P483-2L3F tetramer analysis was used. After 6 IVS cycles, 20% and 16% of the T-cells bound to the P432-3F10K and P483-2L3F tetramer, respectively. 0.01% and 0.04% of the cells bound to a negative tetramer.

[2] = system: CD8+ T-cells in PBMCs from carcinoma patients; test: IFNγ ELISPOT assay, precursor frequency of specific T-cells in patient PBMCs; conditions: for Patients with specific IFNγ production upon stimulation with peptide: PBMCs pre and three months postvaccination; for Precursor frequency of specific T-cells: peptide 25 μg/mL
Experimental: Measurement of CD8 immune responses in HLA-A3^+ patients was conducted by enzyme-linked immunosorbent spot assay (ELISPOT) using a modification of the procedure described in Arlen et al., Cancer Immunol. Immunother., 49: 517-529 (2000). The assay was performed using K562-A3 cells as APC. ELISPOT measures the frequency of T cells releasing IFNγ in response to stimulation with a peptide. P432-3F10K, P483-2L3F, no peptide, or an HIV gag peptide (SEQ ID NO: 25; a negative control) were used. Pre- and Post-vaccination PBMCs from each patient were compared. A positive response was scored as a ≥2-fold increase in IFNγ-secreting cells. The spots were analyzed using an ImmunoSpot counter (Cellular Technology Ltd, Shaker Heights, Ohio).
To evaluate the presence of CD8^+ T-cells reactive to the P432-3F10K and P483-2L3F peptides in PBMCs from carcinoma patients enrolled in the clinical vaccine trial, an IFNγ ELISPOT assay was performed. The P432-3F10K and P483-2L3F peptides were used in an ELISPOT assay at a concentration of 25 μg/mL to determine the precursor frequency of specific T-cells. Peptide-pulsed K562-A3 cells were used as APC at an effector:APC ratio of 1:2. HIV peptide and no peptide were used as controls.

[3] = system: CD8+ T cells in PBMCs from cancer patients; test: Tetramer staining of patient PBMCs after 2 IVS cycles with peptide
Experimental: as §1
PBMCs from three patients from the clinical vaccine trial were stimulated for 2 IVS cycles with the autologous dendritic cells exposed to peptide P432-3F10K or P483-2L3F, and one week after the last stimulation the cells were subjected to FACS analysis after staining with CD8-FITC (20 μL) and either P432-3F10K/P483-2L3F-tetramer-PE (1 μL) or negative tetramer-PC (1 μL) for 45 minutes.
Results in Tables 9 and 10 are expressed as the frequency of tetramer positive cells from all CD8^+ T-cells.

[4] = system: MUC1-C specific T-cell lines; test: Cytokine production by MUC1-C specific T-cell lines with peptide-pulsed autologous B-cells (Multi-array)
Experimental: 2.2×10^6 T-cells and 5.5×10^6 autologous B-cells pulsed with peptide P432-3F10K or P483-2L3F were incubated for 24 h in […] medium per well. The supernatants were analyzed by Multi-array technology (Meso Scale Diagnostics, Gaitersburg, Md.) for detection of cytokines.
To test the ability of the MUC1-C peptides to induce cytokine production, P432-3F10K and P483-2L3F specific T-cell lines (1.1×10^6 T cells/mL) from two patients from the PANVAC ovarian cancer clinical trial described in Example 6 were incubated for 24 hours with autologous B-cells pulsed with P432-3F10K or P483-2L3F for 24 hours. The cytokine levels in supernatant of stimulated and unstimulated cells were evaluated.

Sequence	T-cells bound to peptide/HLA-A3 tetramer [1] [%]	Patients with specific IFNγ production upon stimulation with peptide [2]	Precursor frequency of specific T-cells ([2]; Patient II, Post)	Precursor frequency of specific T-cells ([2]; Patient II, Pre)	Precursor frequency of specific T-cells ([2]; Patient III, Post)	Precursor frequency of specific T-cells ([2]; Patient III, Pre)	Precursor frequency of specific T-cells ([2]; Patient IV, Post)	Precursor frequency of specific T-cells ([2]; Patient IV, Pre)	Precursor frequency of specific T-cells ([2]; Patient IX, Post)	Precursor frequency of specific T-cells ([2]; Patient IX, Pre)	Precursor frequency of specific T-cells ([2]; Patient V, Post)	Precursor frequency of specific T-cells ([2]; Patient V, Pre)	Precursor frequency of specific T-cells ([2]; Patient VI, Post)	Precursor frequency of specific T-cells ([2]; Patient VI, Pre)	Precursor frequency of specific T-cells ([2]; Patient VII, Post)	Precursor frequency of specific T-cells ([2]; Patient VII, Pre)	Precursor frequency of specific T-cells ([2]; Patient VIII, Post)	Precursor frequency of specific T-cells ([2]; Patient VIII, Pre)	Precursor frequency of specific T-cells ([2]; Patient X, Post)	Precursor frequency of specific T-cells ([2]; Patient X, Pre)	other results
ALFIVYLIAK [Peptide P432-3F10K]	20	5 of 11	1/2372	1/6316	1/5455	1/6522	1/1322	1/2000	<1/200000	<1/200000	<1/200000	<1/200000	1/21429	1/4511	<1/200000	<1/200000	<1/200000	<1/200000	<1/200000	<1/200000	Precursor frequency of specific T-cells ([2]; Patient XI, Post): 1/7229; Precursor frequency of specific T-cells ([2]; Patient XI, Pre): 1/4196; Frequency of tetramer positive cells from all CD8+ T-cells ([3]; patient III post-vaccination): 59.9%; Frequency of tetramer positive cells from all CD8+ T-cells ([3]; patient III pre-vaccination): 44.5%; Frequency of tetramer positive cells from all CD8+ T-cells ([3]; patient IV post-vaccination): 23.8%; Frequency of tetramer positive cells from all CD8+ T-cells ([3]; patient IV pre-vaccination): 22.0%; Frequency of tetramer positive cells from all CD8+ T-cells ([3]; patient V post-vaccination): 22.0%; Frequency of tetramer positive cells from all CD8+ T-cells ([3]; patient V pre-vaccination): 31.5%; IFNγ ([4]; Patient I, IVS 7): 350 pg/mL; IL-2 ([4]; Patient I, IVS 7): 40 pg/mL; IL-6 ([4]; Patient I, IVS 7): 16 pg/mL; IL-12p70 ([4]; Patient I, IVS 7): 5 pg/mL; TNFα ([4]; Patient I, IVS 7): 180 pg/mL; IFNγ ([4]; Patient II, IVS 8): 50 pg/mL; IL-2 ([4]; Patient II, IVS 8): 3 pg/mL; IL-6 ([4]; Patient II, IVS 8): 80 pg/mL; IL-12p70 ([4]; Patient II, IVS 8): 7 pg/mL; TNFα ([4]; Patient II, IVS 8): 130 pg/mL
SLFRSPYEK [Peptide P483-2L3F]	16	No patient had a specific reaction	<1/200000	<1/200000	<1/200000	<1/200000	<1/200000	<1/200000	<1/200000	<1/200000	<1/200000	<1/200000	<1/200000	<1/200000	<1/200000	<1/200000	<1/200000	<1/200000	<1/200000	<1/200000	Precursor frequency of specific T-cells ([2]; Patient XI, Post): <1/200000; Precursor frequency of specific T-cells ([2]; Patient XI, Pre): <1/200000; Frequency of tetramer positive cells from all CD8+ T-cells ([3]; patient III post-vaccination): 80.9%; Frequency of tetramer positive cells from all CD8+ T-cells ([3]; patient III pre-vaccination): 64.7%; Frequency of tetramer positive cells from all CD8+ T-cells ([3]; patient IV post-vaccination): 65.7%; Frequency of tetramer positive cells from all CD8+ T-cells ([3]; patient IV pre-vaccination): 45.5%; Frequency of tetramer positive cells from all CD8+ T-cells ([3]; patient V post-vaccination): 43.8%; Frequency of tetramer positive cells from all CD8+ T-cells ([3]; patient V pre-vaccination): 53.5%; IFNγ ([4]; Patient I, IVS 7): 180 pg/mL; IL-2 ([4]; Patient I, IVS 7): 7 pg/mL; IL-6 ([4]; Patient I, IVS 7): 12 pg/mL; IL-12p70 ([4]; Patient I, IVS 7): 5 pg/mL; TNFα ([4]; Patient I, IVS 7): 46 pg/mL; IFNγ ([4]; Patient II, IVS 8): 2590 pg/mL; IL-2 ([4]; Patient II, IVS 8): 15 pg/mL; IL-6 ([4]; Patient II, IVS 8): 150 pg/mL; IL-12p70 ([4]; Patient II, IVS 8): 9 pg/mL; TNFα ([4]; Patient II, IVS 8): 470 pg/mL
